Experimental data taken from PubChem BioAssay (NCI).
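Five concentrations, 48 hours, 96-well plates. TGI is the concentration that stops growth completely.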

How the values were obtained:
Experiment in all cases: NCI-60 cell line screen, 48 h
[1] = test system: 786-0 renal
[2] = test system: A549 NSCLC
[3] = test system: ACHN renal
[4] = test system: BT-549 breast
[5] = test system: CAKI-1 renal
[6] = test system: CCRF-CEM leukemia
[7] = test system: COLO 205 colon
[8] = test system: DU-145 prostate
[9] = test system: EKVX NSCLC
[10] = test system: HCC-2998 colon
[11] = test system: HCT-116 colon
[12] = test system: HCT-15 colon
[13] = test system: HOP-62 NSCLC
[14] = test system: HS 578T breast
[15] = test system: HT29 colon
[16] = test system: IGROV1 ovarian
[17] = test system: K-562 leukemia
[18] = test system: KM12 colon
[19] = test system: M14 melanoma
[20] = test system: MALME-3M melanoma
[21] = test system: MCF7 breast
[22] = test system: MDA-MB-231 breast
[23] = test system: MDA-MB-435
[24] = test system: MDA-N
[25] = test system: MOLT-4 leukemia
[26] = test system: NCI-H226 lung
[27] = test system: NCI-H23 lung
[28] = test system: NCI-H460 lung
[29] = test system: NCI-H522 lung
[30] = test system: NCI/ADR-RES ovarian
[31] = test system: OVCAR-3 ovarian
[32] = test system: OVCAR-4 ovarian
[33] = test system: OVCAR-5 ovarian
[34] = test system: OVCAR-8 ovarian
[35] = test system: PC-3 prostate
[36] = test system: RXF 393 renal
[37] = test system: SF-295 CNS
[38] = test system: SF-539 CNS
[39] = test system: SK-MEL-2 melanoma
[40] = test system: SK-MEL-5 melanoma
[41] = test system: SK-OV-3 ovarian
[42] = test system: SN12C renal
[43] = test system: SNB-19 CNS
[44] = test system: SNB-75 CNS
[45] = test system: SR leukemia
[46] = test system: T-47D breast
[47] = test system: TK-10 renal
[48] = test system: U251 CNS
[49] = test system: UACC-257 melanoma
[50] = test system: UACC-62 melanoma
[51] = test system: UO-31 renal
[52] = test system: A498 renal
[53] = test system: HL-60(TB) leukemia
[54] = test system: LOX IMVI melanoma
[55] = test system: RPMI-8226 leukemia
[56] = test system: SF-268 CNS
[57] = test system: SK-MEL-28 melanoma
[58] = test system: SW-620 colon
[59] = test system: HOP-92 NSCLC

Clc1cc2nn(C3CCCCO3)nc2cc1Cl (configuration not stated) gave a TGI [1] of over 100 µM, a TGI [2] of over 100 µM and a TGI [3] of over 100 µM. The TGI [4] was over 100 µM, the TGI [5] was over 100 µM and the TGI [6] was over 100 µM. The TGI [7] was over 100 µM, the TGI [8] was over 100 µM and the TGI [9] was over 100 µM. It also gave a TGI [10] of over 100 µM, a TGI [11] of over 100 µM and a TGI [12] of over 100 µM. It also gave a TGI [13] of over 100 µM, a TGI [14] of over 100 µM and a TGI [15] of over 100 µM. For the same molecule, the TGI [16] was over 100 µM, the TGI [17] was over 100 µM and the TGI [18] was over 100 µM. It also gave a TGI [19] of over 100 µM, a TGI [20] of over 100 µM and a TGI [21] of over 100 µM. The TGI [22] was over 100 µM, the TGI [23] was over 100 µM and the TGI [24] was over 100 µM. For the same molecule, the TGI [25] was over 100 µM, the TGI [26] was over 100 µM and the TGI [27] was over 100 µM. It also gave a TGI [28] of over 100 µM, a TGI [29] of over 100 µM and a TGI [30] of over 100 µM. For the same molecule, the TGI [31] was over 100 µM, the TGI [32] was over 100 µM and the TGI [33] was over 100 µM. The TGI [34] was over 100 µM, the TGI [35] was over 100 µM and the TGI [36] was over 100 µM. For the same molecule, the TGI [37] was over 100 µM, the TGI [38] was over 100 µM and the TGI [39] was over 100 µM. The TGI [40] was over 100 µM, the TGI [41] was over 100 µM and the TGI [42] was over 100 µM. It also gave a TGI [43] of over 100 µM, a TGI [44] of over 100 µM and a TGI [45] of over 100 µM. The TGI [46] was over 100 µM, the TGI [47] was over 100 µM and the TGI [48] was over 100 µM. For the same molecule, the TGI [49] was over 100 µM, the TGI [50] was over 100 µM and the TGI [51] was over 100 µM.
Molecule C=CC(O)(CBr)CCC(Br)C(=C)C (configuration not stated) has a TGI [1] of over 10 µM, a TGI [52] of over 10 µM and a TGI [2] of over 10 µM. For the same molecule, the TGI [3] was over 10 µM, the TGI [4] was over 10 µM and the TGI [5] was over 10 µM. It also gave a TGI [6] of over 10 µM, a TGI [7] of over 10 µM and a TGI [8] of over 10 µM. It also gave a TGI [9] of over 10 µM, a TGI [10] of over 10 µM and a TGI [11] of over 10 µM. The TGI [12] was over 10 µM, the TGI [53] was over 10 µM and the TGI [13] was over 10 µM. The TGI [14] was over 10 µM, the TGI [15] was over 10 µM and the TGI [16] was over 10 µM. For the same molecule, the TGI [17] was over 10 µM, the TGI [18] was over 10 µM and the TGI [54] was over 10 µM. The TGI [19] was over 10 µM, the TGI [20] was over 10 µM and the TGI [21] was over 10 µM. For the same molecule, the TGI [22] was over 10 µM, the TGI [23] was over 10 µM and the TGI [24] was over 10 µM. It also gave a TGI [25] of over 10 µM, a TGI [26] of over 10 µM and a TGI [27] of over 10 µM. The TGI [28] was over 10 µM, the TGI [29] was over 10 µM and the TGI [30] was over 10 µM. The TGI [31] was over 10 µM, the TGI [32] was over 10 µM and the TGI [33] was over 10 µM. It also gave a TGI [34] of over 10 µM, a TGI [35] of over 10 µM and a TGI [55] of over 10 µM. The TGI [36] was over 10 µM, the TGI [56] was over 10 µM and the TGI [37] was over 10 µM. It also gave a TGI [38] of over 10 µM, a TGI [39] of over 10 µM and a TGI [57] of over 10 µM. The TGI [40] was over 10 µM, the TGI [41] was over 10 µM and the TGI [42] was over 10 µM. It also gave a TGI [43] of over 10 µM, a TGI [44] of over 10 µM and a TGI [58] of over 10 µM. For the same molecule, the TGI [46] was over 10 µM, the TGI [47] was over 10 µM and the TGI [48] was over 10 µM. The TGI [49] was over 10 µM and the TGI [50] was over 10 µM.
In the case of COC1CCON1C(=O)c1ccccc1 (configuration not stated), the TGI [1] is reported as over 10 µM, the TGI [2] is reported as over 10 µM and the TGI [3] is reported as over 10 µM. The TGI [4] was over 10 µM, the TGI [5] was over 10 µM and the TGI [6] was over 10 µM. For the same molecule, the TGI [7] was over 10 µM, the TGI [8] was over 10 µM and the TGI [9] was over 10 µM. The TGI [10] was over 10 µM, the TGI [11] was over 10 µM and the TGI [12] was over 10 µM. It also gave a TGI [53] of over 10 µM, a TGI [13] of over 10 µM and a TGI [14] of over 10 µM. For the same molecule, the TGI [15] was over 10 µM, the TGI [16] was over 10 µM and the TGI [17] was over 10 µM. The TGI [54] was over 10 µM, the TGI [19] was over 10 µM and the TGI [20] was over 10 µM. For the same molecule, the TGI [21] was over 10 µM, the TGI [22] was over 10 µM and the TGI [23] was over 10 µM. For the same molecule, the TGI [24] was over 10 µM, the TGI [25] was over 10 µM and the TGI [26] was over 10 µM. For the same molecule, the TGI [27] was over 10 µM, the TGI [28] was over 10 µM and the TGI [29] was over 10 µM. The TGI [30] was over 10 µM, the TGI [31] was over 10 µM and the TGI [32] was over 10 µM. For the same molecule, the TGI [33] was over 10 µM, the TGI [34] was over 10 µM and the TGI [35] was over 10 µM. It also gave a TGI [55] of over 10 µM, a TGI [36] of over 10 µM and a TGI [56] of over 10 µM. It also gave a TGI [37] of over 10 µM, a TGI [38] of over 10 µM and a TGI [39] of over 10 µM. It also gave a TGI [57] of over 10 µM, a TGI [40] of over 10 µM and a TGI [41] of over 10 µM. The TGI [42] was over 10 µM, the TGI [43] was over 10 µM and the TGI [44] was over 10 µM. For the same molecule, the TGI [45] was over 10 µM, the TGI [58] was over 10 µM and the TGI [46] was over 10 µM. For the same molecule, the TGI [47] was over 10 µM, the TGI [49] was over 10 µM and the TGI [51] was over 10 µM.
For Cc1cc(Cl)nc2nc(Cl)c(N)cc12, the TGI [1] was 10.5 µM, the TGI [2] was 37.2 µM and the TGI [3] was 18.4 µM. For the same molecule, the TGI [4] was 28.4 µM, the TGI [5] was 0.871 µM and the TGI [6] was over 19.7 µM. For the same molecule, the TGI [7] was 4.3 µM, the TGI [8] was 18 µM and the TGI [9] was 10.5 µM. It also gave a TGI [10] of 3.59 µM, a TGI [11] of 5.92 µM and a TGI [12] of 4.6 µM. The TGI [13] was 19 µM, the TGI [59] was 4.46 µM and the TGI [14] was over 24.3 µM. For the same molecule, the TGI [16] was 22.9 µM, the TGI [17] was over 100 µM and the TGI [18] was 17.8 µM. For the same molecule, the TGI [54] was 3.63 µM, the TGI [19] was 25.6 µM and the TGI [20] was 29.3 µM. For the same molecule, the TGI [21] was over 22.2 µM, the TGI [22] was 11.5 µM and the TGI [23] was 4.64 µM. For the same molecule, the TGI [24] was 3.63 µM, the TGI [25] was over 22.6 µM and the TGI [26] was 51.7 µM. For the same molecule, the TGI [27] was 23.4 µM, the TGI [28] was 5.43 µM and the TGI [29] was 12 µM. It also gave a TGI [30] of 58.2 µM, a TGI [31] of 3.27 µM and a TGI [32] of 8.91 µM. For the same molecule, the TGI [33] was 34 µM, the TGI [34] was 8.55 µM and the TGI [35] was 30.4 µM. For the same molecule, the TGI [55] was 5.74 µM, the TGI [36] was over 32 µM and the TGI [56] was 3.5 µM. For the same molecule, the TGI [37] was 29.9 µM, the TGI [38] was 30.6 µM and the TGI [39] was 31.4 µM. The TGI [57] was 6.21 µM, the TGI [40] was 24.6 µM and the TGI [41] was 37.8 µM. For the same molecule, the TGI [42] was 3.21 µM, the TGI [43] was 9.57 µM and the TGI [44] was 30 µM. It also gave a TGI [45] of over 25.2 µM, a TGI [58] of 4.08 µM and a TGI [46] of 15.4 µM. The TGI [47] was 13.6 µM, the TGI [48] was 4.3 µM and the TGI [49] was 3.55 µM. For the same molecule, the TGI [50] was 5.95 µM and the TGI [51] was 9.54 µM.
